The values below come from patent US8349297B2, “Topical formulations” (Medpharm Limited, priority 2005, dated 2013).

A short description of data set [1]: Solubility studies in PET canisters (clarity observed, ternary phase plot). The format is physicochemical. The protocol:
Solubility studies were conducted in clear, PET canisters. Stir bars were added to the canister and the canister was tared on an analytical balance. […] Lids were placed on the canisters and crimped. The solutions were left to stir overnight. […] All percentages are based on weight/weight calculations.

Data set [2] is described as follows: Stability of BMV in the skin permeation system. The data set is classed as physicochemical. As to conditions: at both 4° C. and 37° C. The protocol:
Stratum corneum was isolated from a frozen human skin sample using standard protocol. The prepared skin was mounted on a filter support and placed on the receiver section of an upright Franz cell. The donor compartment was then fixed on top of the receiver compartment and secured using Parafilm. A magnetic flea and thermostatically regulated receiver fluid (90:10 Acetate Buffer pH=4.5:EtOH) were added to each Franz cell. These cells were placed in a bath at 37° C. and allowed to equilibrate and after a few hours a blank sample was taken from each cell. The integrity of each cell was determined via inversion and an appropriate amount of formulation was applied to the donor chamber of the Franz cell. […] Samples were held at room temperature until HPLC analysis.

Data set [3] in a line: Phase diagram construction with visual solubility assessment. The protocol:
Formulations were prepared by the sequential weighing of the drug followed by the remaining excipients into a 10 mL PET glass coated canister. A magnetic stirrer bar was added and the formulations were crimped with a 100 μL valve. The formulations were allowed to shake for approximately 16 h at room temperature prior to the addition of HFA, and then shaken for a further 8 h prior to visual solubility assessment.

Turning to `CCCCC(=O)O[C@]1(C(=O)CO)[C@@H](C)C[C@H]2[C@@H]3CCC4=CC(=O)C=C[C@]4(C)[C@@]3(F)[C@@H](O)C[C@@]21C` [BMV, betamethasone valerate], in data set [1], the “PVP level at which the drug becomes insoluble” value is recorded as “around 3 % PVP” and the maximum solubility was 1-1.2%. Besides, the “time for which BMV was shown to be stable in the system” value in data set [2] is on record as “up to 72 h”. For `O=C(OOC(=O)c1ccccc1)c1ccccc1` [BPO, Benzoyl peroxide], in data set [3] (10% ethanol, PVP K90), the “drug level at which a saturated system could be formed” value came out at 1%. Turning to `O=C(O)c1ccccc1O` [salicylic acid], the “drug level at which a saturated system could be formed” value in data set [3] (83% HFA, ethanol level varied, co-povidone S-630) stood at 2%.
